Measurements as given in ChEMBL document CHEMBL3046561, “Feeding deterrents from Dictamnus dasycarpus Turcz against two stored-product insects” (J Agric Food Chem, 2002).

Key:
Assay type in all cases: functional, organism-based
[1] = tested on: Tribolium castaneum; test: Antifeedant activity against adult of Tribolium castaneum (red flour beetle) after 3 days
[2] = tested on: Tribolium castaneum; test: Antifeedant activity against larvae of Tribolium castaneum (red flour beetle) after 3 days
[3] = tested on: Sitophilus zeamais; test: Antifeedant activity against adult of Sitophilus zeamais after 3 days

SMILES	EC50 [1] [ppm]	EC50 [2] [ppm]	EC50 [3] [ppm]
C/C=C(\C)C(=O)O[C@H]1C[C@@H](OC(C)=O)[C@@]2(C(=O)OC)CO[C@H]3[C@@H](O)[C@@](C)([C@]45O[C@@]4(C)[C@@H]4C[C@H]5O[C@@H]5OC=C[C@@]54O)[C@H]4[C@]1(CO[C@]4(O)C(=O)OC)[C@@H]32 [AZADIRACHTIN A]	57.6	47.9	91.7
CC(=O)O[C@@H]1C[C@H](O)[C@@]23CO[C@@H](O)[C@]1(C)[C@@H]2C[C@@H](O)[C@]1(C)[C@@H]3C(=O)[C@H](OC(C)=O)[C@@]2(C)[C@H](c3ccoc3)C[C@H]3O[C@]321 [TOOSENDANIN]	66	48	100
